In ChEMBL document CHEMBL3882386, “Novel methods for identifying improved, non-sedating alpha-2 agonists” (2005):
One block for each compound: values may come before it. The source made the active and inactive calls. The calls are words filed in the database; no cut-off is given here.

Assays:
Mus musculus [1] = test: Reduction in […]-induced tactile hypersensitivity in C57BL/6 mouse at 10 ug/kg, ip relative to control; format: functional; parameters: scale not given: the % may be the effect or the level left
Mus musculus [2] = test: Induction of sedation in C57BL/6 mouse at 100 ug/kg, ip relative to control; format: organism-based; details: in vivo, 0.1 mg/kg
[3] = target: T1, Alpha-2C adrenergic receptor (Mus musculus, UniProt Q01337); test: Binding affinity to mouse alpha-2C receptor expressed in COS7 cells; format: cell-based, COS-7
T1 sequence (Q01337 whole entry): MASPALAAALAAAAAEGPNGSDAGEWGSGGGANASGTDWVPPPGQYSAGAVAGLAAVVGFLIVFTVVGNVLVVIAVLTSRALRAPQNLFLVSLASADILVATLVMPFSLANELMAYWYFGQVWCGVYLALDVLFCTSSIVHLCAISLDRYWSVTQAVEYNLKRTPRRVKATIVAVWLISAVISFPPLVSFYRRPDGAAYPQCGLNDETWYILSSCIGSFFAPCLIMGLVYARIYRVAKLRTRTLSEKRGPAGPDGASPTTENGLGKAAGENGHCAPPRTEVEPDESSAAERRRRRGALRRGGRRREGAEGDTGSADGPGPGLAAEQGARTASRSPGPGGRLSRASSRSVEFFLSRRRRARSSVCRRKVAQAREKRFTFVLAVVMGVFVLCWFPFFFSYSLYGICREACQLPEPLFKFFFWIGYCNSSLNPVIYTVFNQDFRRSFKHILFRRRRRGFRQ

[4] = target: T2, Alpha-2A adrenergic receptor (Mus musculus, UniProt Q01338); test: Binding affinity to mouse alpha-2A receptor expressed in COS7 cells; format: cell-based, COS-7
T2 sequence (Q01338 whole entry): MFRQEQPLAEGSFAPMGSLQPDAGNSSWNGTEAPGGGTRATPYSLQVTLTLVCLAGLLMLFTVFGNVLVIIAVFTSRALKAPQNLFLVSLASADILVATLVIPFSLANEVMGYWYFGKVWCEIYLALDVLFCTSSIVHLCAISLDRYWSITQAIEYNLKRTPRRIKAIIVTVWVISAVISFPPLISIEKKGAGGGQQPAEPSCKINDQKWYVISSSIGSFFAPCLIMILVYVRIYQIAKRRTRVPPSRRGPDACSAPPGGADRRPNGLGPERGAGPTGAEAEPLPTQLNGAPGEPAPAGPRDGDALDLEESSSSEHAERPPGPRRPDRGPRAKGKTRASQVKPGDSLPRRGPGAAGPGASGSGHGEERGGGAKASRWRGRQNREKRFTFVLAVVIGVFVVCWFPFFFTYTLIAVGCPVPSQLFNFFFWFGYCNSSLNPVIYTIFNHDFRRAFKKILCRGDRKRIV

Mus musculus [5] = test: Reduction in […]-induced tactile hypersensitivity in C57BL/6 mouse at 1 ug/kg, po relative to control; format: functional; parameters: scale not given: the % may be the effect or the level left
Mus musculus [6] = test: Induction of sedation in C57BL/6 mouse at 100 to 1000 ug/kg, po relative to control; format: organism-based; details: in vivo
Mus musculus [7] = test: Reduction in […]-induced tactile hypersensitivity in C57BL/6 mouse at 1 ug/kg, ip relative to control; format: functional; parameters: scale not given: the % may be the effect or the level left
Mus musculus [8] = test: Induction of sedation in C57BL/6 mouse at 100 to 1000 ug/kg, ip relative to control; format: organism-based; details: in vivo
Mus musculus [9] = test: Reduction in sulprostone-induced tactile hypersensitivity in C57BL/6 mouse at 0.1 to 1000 ug/kg, po; format: functional
Mus musculus [10] = test: Induction of sedation in C57BL/6 mouse at 0.1 to 1000 ug/kg, po; details: in vivo

SMILES: OCC1=CCCC(Cc2c[nH]cn2)C1 (stereo not given)
Activity (Mus musculus [1]): >50%
Activity (Mus musculus [2]): < 30%

Ki [3]: 0.65 µM
Ki [4]: 5.8 µM
SMILES: NC[C@H](O)c1ccc(O)c(O)c1 [NOREPINEPHRINE]

SMILES: Cc1cccc([C@H](C)c2c[nH]c(=S)[nH]2)c1C [REZATOMIDINE]
Activity (Mus musculus [5]): 50%
Activity (Mus musculus [6]): < 30%
Activity (Mus musculus [7]): 50%
Activity (Mus musculus [8]): < 30%
Activity (Mus musculus [9]): Active
Activity (Mus musculus [10]): Non-Toxic
